# Reference: patent US8722616B2, “Anti-HIV peptides and methods of use thereof” (priority 2009, dated 2014)
# No end group written: not given here.
# Tests used:
# CEM-SS cells = experiment: Cytotoxicity in the CPE assay (XTT, 50% reduction in cell viability)
# Protocol: (§1) Anti-HIV cytopathic effect inhibition assays were conducted as described (Buckheit et al. (1995) Antimicrob. Agents Chemother., 39:2718-2727). In brief, serially diluted peptides were added to a 96-well round bottom microtiter plate in triplicate. CEM-SS cells at a concentration of 2.5×10^3 cells per well and HIV-1IIIB at the appropriate pre-determined titer were sequentially added to the microtiter plate. The cultures were incubated at 5% CO2/37° C. for six days. Following the incubation, the microtiter plates were stained with XTT tetrazolium dye to evaluate the efficacy and toxicity of the test compound(s).
# as §1, with “Cytopathic Effect (CPE) Inhibition Assay: The CPE assay was performed” for “Anti-HIV cytopathic effect inhibition assays were conducted”, “as previously” for “as”, “Briefly,” for “In brief,”, “compound was” for “peptides were”
# HIV-1IIIB = experiment: microbe, parasite or virus in culture
# Protocol: as §1
# as §1, with “Cytopathic Effect (CPE) Inhibition Assay: The CPE assay was performed” for “Anti-HIV cytopathic effect inhibition assays were conducted”, “as previously” for “as”, “Briefly,” for “In brief,”, “compound was” for “peptides were”
# in vitro = conditions: human
# Protocol: as §1
# as §1, with “Cytopathic Effect (CPE) Inhibition Assay: The CPE assay was performed” for “Anti-HIV cytopathic effect inhibition assays were conducted”, “as previously” for “as”, “Briefly,” for “In brief,”, “compound was” for “peptides were”
# [1] = read-out: TC50, Table 1, CEM-SS cells, six days, 50% reduction in cell viability
# [2] = Table 1, CEM-SS cells, HIV-1IIIB, six days, 50% inhibition of virus replication
# [3] = Table 5, BMAP-27-derived peptides, CEM-SS cells
# [4] = >100 μg/ml defined as HIV inactive
# [5] = read-out: TC50, Table 3, CEM-SS cells
# [6] = Table 4, LL-37-derived peptides, CEM-SS cells
substance,measurement,setting,value
"GMASKAGAIAGKIAKVALKAL-NH2 [PGLa, reference compound]",CC50,CEM-SS cells; [1],> 50.8 µM
same,EC50,HIV-1IIIB; [2],> 50.8 µM
"GNNRPVYIPQPRPPHPRI [Apidaecin IA, reference compound]",CC50,CEM-SS cells; [1],> 47.4 µM
same,EC50,HIV-1IIIB; [2],> 47.4 µM
GRFKRFRKKFKKLFK-NH2 [BMAP-15],CC50 at 6 days,in vitro,> 49.6 µM
same,EC50,HIV-1IIIB; [3],> 49.6 µM
GRFKRFRKKFKKLFKKIS-NH2 [BMAP-18],CC50 at 6 days,in vitro,8.45 µM
same,EC50,HIV-1IIIB; [4],0.8 µg/mL
same,EC50,HIV-1IIIB; [3],0.35 µM
GRFKRFRKPFKKLFKKIS-NH2 [BMAP-18P9],CC50 at 6 days,in vitro,18.9 µM
same,EC50,HIV-1IIIB; [3],3.2 µM
GRFKRIRKKLKKLFKKIS-NH2 [BMAP-18I6L10],CC50 at 6 days,in vitro,2.79 µM
same,EC50,HIV-1IIIB; [3],> 44 µM
GWFDIIKKIASEL [Peptide B4],CC50,CEM-SS cells,38.9 µM
same,EC50,HIV-1IIIB; 1IIIB,10.7 µM
GWFDVVKHIAKRF-NH2 [Peptide D70] [listing 1 of 2 here],EC50,HIV-1IIIB; [2],2.99 µM
GWFDVVKHIAKRF-NH2 [Peptide D70] [listing 2 of 2 here],CC50,CEM-SS cells; [1],10.6 µM
GWLKKIESIIDAF [Peptide B8],CC50,"CEM-SS cells; read-out: TC50, Table 2, CEM-S cells",> 65.8 µM
same,EC50,"HIV-1IIIB; Table 2, sequence shuffling, CEM-S cells",29.5 µM
"H-GFKDLLKGAAKALVKTVLF-NH2 [Ascaphin-8, reference compound]",CC50,CEM-SS cells,2.9 µM
"H-GLADFLNKAVGKVVDFVKS-NH2 [Desertcolin 1, reference compound]",CC50,CEM-SS cells,> 49.9 µM
same,EC50,HIV-1IIIB; 1IIIB,> 49.9 µM
"H-GLLGLLGSVVSHVVPAIVGHF-NH2 [Maculatin 1.3, reference compound]",CC50,CEM-SS cells,8.02 µM
"HVDKKVADKVLLLKQLRIMRLLTRL [Spinigerin, reference compound]",toxicity to human cells at,CEM-SS cells,≥ 25 µM
same,CC50,"CEM-SS cells; human, 6 days",> 33.3 µM
IKWKKLLRAAKRIL-NH2 [Peptide D74],CC50,CEM-SS cells; [1],1.3 µM
same,EC50,HIV-1IIIB; [2],> 57.6 µM
"ILGPVLGLVSDTLDDVLGIL [Maximin H5, reference compound]",CC50,CEM-SS cells; [5],> 49.4 µM
same,EC50,"HIV-1IIIB; Table 3, CEM-SS cells",> 49.4 µM
ILGPVLGLVSRTLRRVLGIL [Maximin H5r3],CC50,CEM-SS cells; [5],8.7 µM
same,EC50,"HIV-1IIIB; Table 3, CEM-SS cells",2.2 µM
"INLKAIAALAKKLL [Mastoparan M, reference compound]",CC50,CEM-SS cells; [1],> 67.6 µM
same,EC50,HIV-1IIIB; [2],> 67.6 µM
"KGRGKQGGKVRAKAKTRSS [Parasin I, reference compound]",CC50,CEM-SS cells; [1],> 50 µM
same,EC50,HIV-1IIIB; [2],> 50 µM
KRIVQRIKDFLR-NH2 [KR-12],CC50 at 6 days,in vitro,> 63.5 µM
same,EC50,HIV-1IIIB; [6],> 63.5 µM
KRIVQRIKDFLRNLVPRTES [KR-20],CC50 at 6 days,in vitro,> 40.5 µM
LLGDLLRKSKEKIGKEFKRIVQR-NH2 [LL-23],CC50 at 6 days,in vitro,> 35.4 µM
"LLGDLLRKSKEKIGKEFKRIVQRIKDFLRNLVPRTES [LL-37, reference compound]",CC50 at 6 days,in vitro,18.4 µM
same,EC50,HIV-1IIIB; [4],7.3 µg/mL
same,EC50,HIV-1IIIB; [6],1.6 µM
"LLKELWTKIKGAGKAVLGKIKGLL [Ponericin L2, reference compound]",CC50,CEM-SS cells; [1],24.7 µM
same,EC50,HIV-1IIIB; [2],1.4 µM
NLVSGLIEARKYLEQLHRKLKNRKV [Peptide D88] [listing 1 of 2 here],EC50,HIV-1IIIB; [2],> 33.3 µM
NLVSGLIEARKYLEQLHRKLKNRKV [Peptide D88] [listing 2 of 2 here],CC50,CEM-SS cells; [1],> 33.3 µM
"RPKHPIKHQGLPQEVLNENLLRF [Isracidin, reference compound]",CC50,CEM-SS cells; [1],> 36.2 µM
same,EC50,HIV-1IIIB; [2],> 36.2 µM
"RQRVEELSKFSKKGAAARRRK [Misgurin, reference compound]",CC50,CEM-SS cells; [1],> 40 µM
same,EC50,HIV-1IIIB; [2],> 40 µM
SLSRFLRFLKIVYRRAF-NH2 [Peptide D98],CC50,CEM-SS cells; [1],8.6 µM
same,EC50,HIV-1IIIB; [2],0.83 µM
"SWKSMAKKLKEYMEKLKQRA [Latarcin 3a, reference compound]",EC50,HIV-1IIIB; [4],~100 µg/mL
"VDKPDYRPRPRPPNM [Metalnikowin I, reference compound]",CC50,CEM-SS cells; [1],> 54.4 µM
same,EC50,HIV-1IIIB; [2],> 54.4 µM
